Experimental data taken from patent US4129659A, “Method for improving cardiovascular function with salinomycin” (The University of Miami, priority 1977, dated 1978).
Like-named read-outs stand apart in the source and are kept apart here.

Columns and labels:
[1] = test system: skeletal and cardiac muscle; settings: prior finding ("it has been shown"); in words; cited from earlier work
[2] = test system: erythrocytes of whole fresh human blood; experiment: RBC K+ leak: release of erythrocyte potassium into plasma fraction in vitro; format: cell-based; settings: for Ratio 2/4 (coronary flow potency / RBC K+ leak potency): dog coronary flow vs human RBC K+ leak; for Ratio 2/4 (coronary flow potency / RBC K+ leak potency) / Ratio 1/4 (inotropic potency / RBC K+ leak potency) / RBC K+ Leak Potency (column 4): relative to lasalocid; for Ratio 1/4 (inotropic potency / RBC K+ leak potency): dog inotropy vs human RBC K+ leak; for RBC K+ Leak Potency (column 4): reciprocal of concentration which leaked 15 mM K+/hr from erythrocytes
Protocol: ^4 RBC K^+ leak potency is the reciprocal of the concentration
which leaked 15 mMK^+ /hr. from the erythrocytes of whole fresh human
blood, relative to that of Lasalocid. The reference concentration of
The intrinsic ability of the test ionophores to release cellular potassium was measured using whole human blood and assaying the release of erythrocyte potassium into the plasma fraction in vitro.

[3] = test system: heart and coronary circulation of anesthetized dogs; experiment: Physiological effects of ionophores in anesthetized dogs: inotropic and coronary flow potency relative to lasalocid; format: in vivo, dog
Protocol: Extended experimental studies were conducted involving a number of ionophores.
^1 Studies conducted on anesthetized dogs.
^2 Ionotropic potencies are expressed as the reciprocal of the dose
required to double dP/dt Max., relative to the dose of Lasolocid required
^3 Coronary flow potency is calculated as the inotropic potency,
normalized for coronary flow by the factor: coronary flow increased
produced by doubling dose of the test ionophore/coronary flow produced by
the doubling dose of Lasalocid.

cardiac muscle = settings: in words; cited from earlier work
heart = experiment: Studies in anesthetized normal and infarcted dogs and isolated guinea pig and rabbit hearts; format: in vivo, dog; settings: in words
intra-cellular Na+ = experiment: Intracellular cation exchange (Na+ for K+); settings: in exchange for K+; in words
Oral LD50 in dogs = settings: dog, in vivo, oral administration
[4] = test system: skeletal and cardiac muscle; experiment: Skeletal and cardiac myopathy upon chronic administration; format: in vivo; settings: in words
Solubility in water = format: physicochemical; settings: in words
[5] = test system: heart and coronary circulation of anesthetized dogs; experiment: Hemodynamic effects of intravenous salinomycin in anesthetized normal dogs; format: in vivo, dog (normal female mongrel dogs); settings: for Coronary Flow, % of Control / dP/dt, % of Control: Table 1
Protocol: Normal female mongrel dogs, weighing 30-35 lbs., were anesthetized with intravenous sodium pentobarbital (20 mg/kg.) and artificially ventilated. […] The derivative of the left ventricular pressure (dP/dt) was obtained from a Millar micromanometer-tipped catheter after differentiation by an appropriate R-C circuit. The electrocardiogram was monitored from standard leads attached to the extremities of the dog. All parameters were recorded simultaneously and continuously by a multichannel photographer recorder, and were monitored during the experiments by a multichannel oscilloscope.
After all vital parameters had become stable, 0.03 mg/kg of salinomycin in absolute ethanol was administered over a period of 30 seconds to 1 minute. An hour later a larger dose of 0.06 mg/kg was administered to the same dog.
Further information on the hemodynamic effects of salinomycin were obtained in a study involving seven dogs. Using the same procedure set forth hereinabove and after all vital parameters had become stable, 0.075 mg/kg of salinomycin in absolute ethanol was administered over a period of 30 seconds to one minute.

Oral LD50 in chickens = settings: chicken, in vivo, oral administration
[6] = inotropic potency normalized for coronary flow increase at doubling dose, relative to lasalocid, anesthetized dogs
[7] = reciprocal of dose required to double dP/dt Max., relative to lasalocid, anesthetized dogs
[8] = 0.03 mg/kg in absolute ethanol, anesthetized dog
[9] = 0.06 mg/kg, an hour after 0.03 mg/kg, same dog
[10] = 0.075 mg/kg, seven dogs, P <.001
[11] = 0.075 mg/kg, seven dogs, P <.01

COC1CCC(OC2C(C)C(O)(C(C)C(=O)O)OC(CC3CC(OC)C(C)C4(O3)OC(C)(C3CCC(C5CCC(C6OC(C)(O)C(C)C(OC)C6C)O5)O3)C(OC)C4C)C2(C)OC)OC1C (stereo not drawn) [A-204]
skeletal and cardiac myopathy upon chronic administration [1]: exhibits the undesirable side effects of skeletal and cardiac myopathy upon chronic administration
Ratio 2/4 (coronary flow potency / RBC K+ leak potency) [2]: .34
Ratio 1/4 (inotropic potency / RBC K+ leak potency) [2]: .32
increase in potassium cellular leakage potency compared with salinomycin ([2]; human): 400%
RBC K+ Leak Potency (column 4) [2]: 41.0
coronary flow potency compared with salinomycin ([3]; in words): markedly reduced coronary flow potency than salinomycin
inotropic potency compared with salinomycin ([3]; in words): slightly higher inotropic potency than salinomycin
Coronary Flow Potency [3, 6]: 14.1
Inotropic Potency [3, 7]: 13.1

CO[C@H]1CC[C@@H](O[C@H]2C[C@H]([C@]3(C)CC[C@]4(C[C@H](O)[C@@H](C)[C@@H]([C@@H](C)/C=C(\C)C(=O)[C@H](C)C[C@H](C)C(=O)O)O4)O3)O[C@]3(O[C@@H]([C@H]4O[C@@](O)(CO)[C@H](C)C[C@@H]4C)C[C@@H]3C)[C@@H]2C)O[C@@H]1C [Dianemycin]
Ratio 2/4 (coronary flow potency / RBC K+ leak potency) [2]: .25
Ratio 1/4 (inotropic potency / RBC K+ leak potency) [2]: .24
RBC K+ Leak Potency (column 4) [2]: 18.0
Coronary Flow Potency [3, 6]: 4.6
Inotropic Potency [3, 7]: 4.3

CC[C@@H](C(=O)[C@@H](C)[C@@H](O)[C@H](C)CCc1ccc(C)c(O)c1C(=O)O)[C@H]1O[C@](CC)([C@H]2CC[C@](O)(CC)[C@H](C)O2)C[C@@H]1C [Lasalocid, lasalocid]
Ratio 2/4 (coronary flow potency / RBC K+ leak potency) [2]: 1.0
Ratio 1/4 (inotropic potency / RBC K+ leak potency) [2]: 1.0
concentration which leaked 15 mM K+/hr. from erythrocytes ([2]; human): 11.5 µM
cardiac effects (prior art) (cardiac muscle): cardiotrophic properties
Coronary Flow Potency [3]: 1.0
Inotropic Potency [3]: 1.0
Ratio 2/1 (coronary flow potency / inotropic potency) ([3]; relative to lasalocid, anesthetized dogs): 1.0

CC[C@@]1([C@@H]2O[C@@H]([C@H]3O[C@@](O)(CO)[C@H](C)C[C@@H]3C)C[C@@H]2C)CC[C@H]([C@]2(C)CC[C@]3(C[C@H](O)[C@@H](C)[C@@H]([C@@H](C)[C@@H](OC)[C@H](C)C(=O)O)O3)O2)O1 [Monensin]
Ratio 2/4 (coronary flow potency / RBC K+ leak potency) [2]: 1.4
Ratio 1/4 (inotropic potency / RBC K+ leak potency) [2]: .84
RBC K+ Leak Potency (column 4) [2]: 7.2
Coronary Flow Potency [3, 6]: 10.0
Inotropic Potency [3, 7]: 6.1

COC1CC(CC2CCC(C)C(C(C)C(=O)O)O2)OC2(OC(C)(C3CCC(C)(C4OC(C5OC(O)(CO)C(C)CC5C)CC4C)O3)CC2C)C1C (stereo not drawn) [Nigerlcin]
Ratio 2/4 (coronary flow potency / RBC K+ leak potency) [2]: .21
Ratio 1/4 (inotropic potency / RBC K+ leak potency) [2]: .17
RBC K+ Leak Potency (column 4) [2]: 16.4
Coronary Flow Potency [3, 6]: 3.4
Inotropic Potency [3, 7]: 2.8

CC[C@@H](C(=O)[C@@H](C)[C@@H](O)[C@H](C)[C@@H]1O[C@@H]([C@@H](CC)C(=O)O)CC[C@@H]1C)[C@H]1O[C@]2(C=C[C@@H](O)[C@]3(CC[C@@](C)([C@H]4CC[C@](O)(CC)[C@H](C)O4)O3)O2)[C@H](C)C[C@@H]1C [Salinomycin, salinomycin]
effect on cardiac output, coronary flow and myocardial work efficiency (heart): increases in cardiac output, coronary flow and myocardial work efficiency
effect on coronary arteries (heart): dilates the coronary arteries
effect on force of myocardial contraction and heart rate (heart): increases the force of myocardial contraction and heart rate
effect on total peripheral resistance (heart): decreases the total peripheral resistance
pharmacological effect vs potassium release, compared with other carboxylic ionophores ([2]; Table 3, columns 5 and 6, in words): superior to all other carboxylic ionophores examined
Ratio 2/4 (coronary flow potency / RBC K+ leak potency) [2]: 1.96
Ratio 1/4 (inotropic potency / RBC K+ leak potency) [2]: 1.21
RBC K+ Leak Potency (column 4) [2]: 10.0
separation between positive inotropy and coronary vasodilation ([3]; compared with other carboxylic ionophores, in words): more pronounced separation between the two principal cardiotonic responses of positive inotropy and coronary vasodilation
Coronary Flow Potency [3, 6]: 19.6
Inotropic Potency [3, 7]: 12.1
effect on intra-cellular Na+ (intra-cellular Na+): increase in intra-cellular Na^+ in exchange for K^+
LD50 (Oral LD50 in dogs): 10 mg/kg
skeletal and cardiac myopathy upon chronic administration [4]: This undesirable effect has not been shown
solubility in water (Solubility in water): minimal solubility in water
Coronary Flow, % of Control [5, 8]: 175%
dP/dt, % of Control [5, 8]: 131%
Coronary Flow, % of Control [5, 9]: 375%
dP/dt, % of Control [5, 9]: 180%
Cardiac Output, Mean % Control [5, 10]: 178%
dP/dt Max., Mean % Control [5, 10]: 204%
Coronary Flow, Mean % Control [5, 11]: 522%
Coronary Resistance, Mean % Control [5, 11]: 38%
Heart Rate, Mean % Control [5, 11]: 113%
Total Peripheral Resistance, Mean % Control ([5]; 0.075 mg/kg, seven dogs, P <.02): 77%
Cardiac Output + Salinomycin (mean ± SE) ([5]; 0.075 mg/kg, seven dogs, control 1.83 ± .2, P <.001): 3.2 ± .2 L/min
Coronary Flow + Salinomycin (mean ± SE) ([5]; 0.075 mg/kg, seven dogs, control 21 ± 4.8, P <.01): 93 ± 19 mL/min
Heart Rate + Salinomycin (mean ± SE) ([5]; 0.075 mg/kg, seven dogs, control 152 ± 7, P <.01): 170 ± 4 min.^-1
Coronary Resistance + Salinomycin (mean ± SE) ([5]; 0.075 mg/kg, seven dogs, control 460 ± 98, P <.01): 150 ± 25 dynes sec cm^-5
dP/dt Max. + Salinomycin (mean ± SE) ([5]; 0.075 mg/kg, seven dogs, control 2340 ± 265, P <.001): 4700 ± 618 mm. Hg sec^-1
Total Peripheral Resistance + Salinomycin (mean ± SE) ([5]; 0.075 mg/kg, seven dogs, control 4200 ± 600, P <.02): 3200 ± 400 dynes sec cm^-5
ED (2-fold dP/dt max) ([5]; Canis lupus familiaris, iv, in absolute ethanol, anesthetized dogs, read-out: dose that doubles left ventricular max. dP/dt): 0.075 mg/kg
cardiovascular effects (inotropic, chronotropic) ([5]; in words): positive inotropic effects with minimal chronotropic effects
LD50 (Oral LD50 in chickens): 125 mg/kg

CO[C@H]1C[C@@H](C[C@H]2O[C@@](O)([C@H](C)C(=O)O)[C@H](C)[C@H](OC)[C@@]2(C)O[C@H]2CC[C@@H](OC)[C@H](C)O2)O[C@]2(O[C@@](C)([C@@H]3CC[C@H]([C@H]4CC[C@H]([C@H]5O[C@](C)(O)[C@H](C)C[C@@H]5C)O4)O3)[C@H](OC)[C@H]2C)[C@@H]1C [Septamycin]
Inotropic Potency [3, 7]: 2.0

CC[C@@H]1O[C@@H]([C@]2(C)C[C@@H](C)[C@](O)([C@]3(C)CC[C@@H]([C@@H](O)[C@]4(O)O[C@H](C[C@@]5(O)O[C@@H]([C@@H](C)[C@H](O)C[C@H]6CC[C@H](C)[C@@H]([C@@H](C)C(=O)O)O6)CC[C@@H]5C)[C@@H](C)C[C@H]4C)O3)O2)CC[C@@]1(C)O [X-206]
Ratio 2/4 (coronary flow potency / RBC K+ leak potency) [2]: .79
Ratio 1/4 (inotropic potency / RBC K+ leak potency) [2]: .70
RBC K+ Leak Potency (column 4) [2]: 10.9
Coronary Flow Potency [3, 6]: 8.6
Inotropic Potency [3, 7]: 7.7

NCCc1ccc(O)c(O)c1 [dopamine]
cardiac effects (prior art) (cardiac muscle): exerts positive inotropic and chronotropic effects

Lysocellin
Ratio 1/4 (inotropic potency / RBC K+ leak potency) [2]: .36
RBC K+ Leak Potency (column 4) [2]: 4.1
Inotropic Potency [3, 7]: 1.5
